Reference: patent US20260098026A1, “M4 ACTIVATORS/MODULATORS AND USES THEREOF” (Cerevel Therapeutics, LLC, priority 2022, published 2026)

Experiments:
Assay type in all cases: cell-based
[1] = molecular target: T1, M3 muscarinic acetylcholine receptor (mAChR) (Homo sapiens, UniProt P20309); assay: FLIPR calcium assay (Fluo 8), M3-overexpressing CHO-K1 cells
T1 construct: expressed in transfected cells; host or cells: CHO-K1
How it was run: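 CHO-K1 cells overexpressing each human receptor seeded at 15,000 per well, grown overnight at 37° C., 5% CO2, then loaded with Fluo-8 for 30 min. Compounds in HBSS added and calcium response read on FLIPR; EC50 and Emax calculated per subtype.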

[2] = molecular target: T2, M5 muscarinic acetylcholine receptor (mAChR) (Homo sapiens, UniProt P08912); assay: FLIPR calcium assay (Fluo 8), M5-overexpressing CHO-K1 cells
T2 construct: expressed in transfected cells; host or cells: CHO-K1
T2 sequence (P08912 1-532): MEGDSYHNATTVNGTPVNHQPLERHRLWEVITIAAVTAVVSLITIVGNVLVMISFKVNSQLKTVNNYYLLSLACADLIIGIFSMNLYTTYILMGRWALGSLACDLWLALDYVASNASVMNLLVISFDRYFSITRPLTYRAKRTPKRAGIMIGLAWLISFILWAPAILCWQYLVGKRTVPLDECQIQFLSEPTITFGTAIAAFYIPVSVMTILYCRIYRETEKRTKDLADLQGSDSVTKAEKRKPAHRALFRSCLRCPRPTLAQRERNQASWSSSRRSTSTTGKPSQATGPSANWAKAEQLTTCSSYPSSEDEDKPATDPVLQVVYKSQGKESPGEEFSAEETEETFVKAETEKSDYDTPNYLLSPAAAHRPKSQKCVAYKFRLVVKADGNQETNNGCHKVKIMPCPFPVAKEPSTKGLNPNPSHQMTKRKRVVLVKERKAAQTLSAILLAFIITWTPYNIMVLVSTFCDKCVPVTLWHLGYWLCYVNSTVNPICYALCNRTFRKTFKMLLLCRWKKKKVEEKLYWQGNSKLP
Description: (§1) Stimulation of a Gq-coupled G-protein coupled receptors (GPCRs), result in an efflux of calcium from the endoplasmic reticulum to the cytoplasm (Berridge, 1993), thus rendering this assay appropriate for the assessment of M1, M3 and M5 receptors. CHO-K1 cells overexpressing the M1, M3, or M5 muscarinic acetylcholine receptor (mAChR) were dispensed at 15,000 cells per well in 30 μl volume to 384-well plates and grown overnight at 37° C. in a 5% CO2 atmosphere. Fluo-8 Solution, 10 μl per well, was added to each well and incubated for 30 minutes at 37° C. in a 5% CO2 atmosphere. Compounds diluted in Hanks' balanced salt solution (HBSS) were transferred to the cell assay plate at 10 μl per well, and then read on a FLIPR instrument. EC50 and Emax figures were calculated from the resulting data for each receptor subtype.

M4 mAChR = molecular target: T3, M4 mAChR (Homo sapiens, UniProt P08173); assay: cAMP TR-FRET assay with forskolin, M4-overexpressing CHO-K1 cells
T3 construct: expressed in transfected cells; host or cells: CHO-K1
T3 sequence (P08173 1-479): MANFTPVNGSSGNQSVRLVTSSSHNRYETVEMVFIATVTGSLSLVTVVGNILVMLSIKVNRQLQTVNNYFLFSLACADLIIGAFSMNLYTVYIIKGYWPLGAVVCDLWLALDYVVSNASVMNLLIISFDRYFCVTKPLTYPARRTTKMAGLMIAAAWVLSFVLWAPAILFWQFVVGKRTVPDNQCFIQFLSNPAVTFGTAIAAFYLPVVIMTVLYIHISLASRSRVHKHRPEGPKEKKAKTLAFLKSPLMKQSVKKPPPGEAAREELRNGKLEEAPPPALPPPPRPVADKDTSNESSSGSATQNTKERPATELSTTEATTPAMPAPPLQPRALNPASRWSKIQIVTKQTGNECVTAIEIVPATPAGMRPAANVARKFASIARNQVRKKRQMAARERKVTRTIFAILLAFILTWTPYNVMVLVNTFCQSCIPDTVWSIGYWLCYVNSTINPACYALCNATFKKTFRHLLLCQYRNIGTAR
How it was run: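 CHO-K1 cells overexpressing the receptor were stimulated with forskolin to raise cAMP, so that Gi-mediated agonist decreases could be measured. cAMP was quantified by TR-FRET competition between cellular cAMP and labelled donor for anti-cAMP antibody, giving potency and efficacy.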

M2 mAChR = molecular target: T4, M2 mAChR (Homo sapiens, UniProt P08172); assay: cAMP TR-FRET assay with forskolin, M2-overexpressing CHO-K1 cells
T4 construct: expressed in transfected cells; host or cells: CHO-K1
T4 sequence (P08172 1-466): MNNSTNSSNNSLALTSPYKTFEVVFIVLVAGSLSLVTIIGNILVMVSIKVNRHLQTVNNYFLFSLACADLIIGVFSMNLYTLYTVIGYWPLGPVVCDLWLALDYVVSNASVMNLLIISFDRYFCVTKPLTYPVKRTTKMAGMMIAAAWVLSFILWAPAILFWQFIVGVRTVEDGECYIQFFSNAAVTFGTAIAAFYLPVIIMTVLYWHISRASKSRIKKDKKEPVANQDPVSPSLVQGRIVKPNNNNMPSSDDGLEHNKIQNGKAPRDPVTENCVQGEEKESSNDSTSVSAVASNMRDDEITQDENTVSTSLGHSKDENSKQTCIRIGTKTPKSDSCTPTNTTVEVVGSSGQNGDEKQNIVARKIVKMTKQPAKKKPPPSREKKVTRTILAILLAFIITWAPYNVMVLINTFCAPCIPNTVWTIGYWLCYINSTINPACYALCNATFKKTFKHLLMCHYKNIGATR
Description: The M2 and M4 mACh receptors are Gi-coupled receptors which, upon activation, produce a decrease in cAMP. Assays were developed that measured the potency and efficacy of compounds at the M2 or M4 mAChR using M2- or M4-overexpressing CHO-K1 cell lines. Time-resolved fluorescence resonance energy transfer (TR-FRET) technology was used, where signal occurs as a result of transfer of energy if the donor molecule is in close proximity to an acceptor molecule when the molecules have bound to the molecule of interest. The cAMP detection is a competition binding assay, where cAMP produced by cells competes for binding with the labeled donor molecule to the anti-cAMP acceptor antibody. Due to the low basal levels of cAMP in the CHO-K1 cell line, forskolin was used to increase cAMP levels to enable assessment of agonist activity at the mAChR of interest.

[3] = molecular target: T5, M1 muscarinic acetylcholine receptor (mAChR) (Homo sapiens, UniProt P11229); assay: FLIPR calcium assay (Fluo 8), M1-overexpressing CHO-K1 cells
T5 construct: expressed in transfected cells; host or cells: CHO-K1
T5 sequence (P11229 1-460): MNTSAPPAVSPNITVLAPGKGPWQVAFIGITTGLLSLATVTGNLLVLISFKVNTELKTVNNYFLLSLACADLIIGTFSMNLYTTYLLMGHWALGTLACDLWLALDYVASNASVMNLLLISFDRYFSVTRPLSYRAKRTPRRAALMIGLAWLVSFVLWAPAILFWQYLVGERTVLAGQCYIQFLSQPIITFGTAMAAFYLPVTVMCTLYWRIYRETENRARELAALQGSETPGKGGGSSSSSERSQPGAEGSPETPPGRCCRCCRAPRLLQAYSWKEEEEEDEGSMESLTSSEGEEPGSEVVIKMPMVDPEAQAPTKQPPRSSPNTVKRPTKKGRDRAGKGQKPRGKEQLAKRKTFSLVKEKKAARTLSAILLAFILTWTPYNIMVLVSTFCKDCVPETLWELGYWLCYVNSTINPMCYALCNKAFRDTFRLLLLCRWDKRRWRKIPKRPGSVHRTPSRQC
Description: as §1

T1 sequence (P20309 whole entry): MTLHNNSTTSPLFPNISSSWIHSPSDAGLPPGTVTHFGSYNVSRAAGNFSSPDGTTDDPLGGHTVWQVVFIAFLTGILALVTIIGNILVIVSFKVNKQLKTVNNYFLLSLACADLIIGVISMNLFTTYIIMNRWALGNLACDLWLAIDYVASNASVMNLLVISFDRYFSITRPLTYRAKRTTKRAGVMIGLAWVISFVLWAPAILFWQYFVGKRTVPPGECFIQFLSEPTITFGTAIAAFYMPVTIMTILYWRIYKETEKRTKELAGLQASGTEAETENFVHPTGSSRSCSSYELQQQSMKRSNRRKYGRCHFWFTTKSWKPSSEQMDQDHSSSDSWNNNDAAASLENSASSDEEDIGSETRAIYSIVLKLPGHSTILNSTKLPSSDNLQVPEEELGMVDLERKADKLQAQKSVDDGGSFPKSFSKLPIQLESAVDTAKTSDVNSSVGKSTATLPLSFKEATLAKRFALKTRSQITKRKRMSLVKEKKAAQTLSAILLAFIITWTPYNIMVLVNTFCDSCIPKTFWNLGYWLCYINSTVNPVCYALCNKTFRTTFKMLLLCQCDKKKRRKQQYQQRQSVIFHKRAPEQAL

| SMILES | EC50 ([1]; FLIPR calcium) | Emax ([2]; FLIPR calcium) | Emax (M4 mAChR; cAMP TR-FRET with forskolin) | EC50 ([1]; FLIPR) | Emax ([3]; FLIPR) | Emax (M4 mAChR; cAMP assay) | also measured |
| --- | --- | --- | --- | --- | --- | --- | --- |
| CCOC(=O)N1CC2(CC[C@@H](N3CCN(c4cccnc4-c4cncc(OC)c4)CC3)C2)C1 [Compound A1, ethyl (6R)-6-[4-[2-(5-methoxy-3-pyridyl)-3-pyridyl]piperazin-1-yl]-2-azaspiro[3.4]octane-2-carboxylate] | > 10 µM | 19 to 49.9% | 80 to 100% | – | – | – | – |
| CCOC(=O)N1CC2(CC[C@@H](N3CCN(c4cc(F)cnc4C4CCOCC4)CC3)C2)C1 [Compound A7, ethyl (6R)-6-[4-(5-fluoro-2-tetrahydropyran-4-yl-3-pyridyl)piperazin-1-yl]-2-azaspiro[3.4]octane-2-carboxylate] | > 10 µM | – | 80 to 100% | – | – | – | M2 EC50 (nM) (M2 mAChR; cAMP TR-FRET with forskolin): I.A |
| CCOC(=O)N1CC2(CC[C@@H](N3CCN(c4cc(F)cnc4-c4cnc(SC)nc4)CC3)C2)C1 [Compound A63] | > 10 µM | 19 to 49.9% | 80 to 100% | – | – | – | Emax ([3]; FLIPR calcium): 19 to 49.9% |
| CCOC(=O)N1CC2(CC[C@@H](N3CCN(c4cc(F)cnc4-c4cnn(CC(C)C)c4)CC3)C2)C1 [Compound A71] | > 10 µM | 19 to 49.9% | 80 to 100% | – | – | – | – |
| CCOC(=O)N1CC2(CC[C@@H](N3CCN(c4cc(F)cnc4-c4cnn(CC)c4)CC3)C2)C1 [Compound A74] | > 10 µM | 19 to 49.9% | 80 to 100% | – | – | – | – |
| CCNc1ncc(-c2ncc(F)cc2N2CCN([C@@H]3CCC4(C3)CN(C(=O)OCC)C4)CC2)cn1 [Compound A80] | > 10 µM | 19 to 49.9% | 80 to 100% | – | – | – | Emax ([3]; FLIPR calcium): 19 to 49.9% |
| CCOC(=O)N1CC2(CC[C@@H](N3CCN(c4cc(F)cnc4-c4ccc(CO)o4)CC3)C2)C1 [Compound A91] | > 10 µM | 19 to 49.9% | 80 to 100% | – | – | – | – |
| CCOC(=O)N1CC2(CC[C@@H](N3CCN(c4cc(F)cnc4-c4cnc(OC)c(F)c4)CC3)C2)C1 [Compound A139] | > 10 µM | – | 80 to 100% | – | – | – | Emax ([3]; FLIPR calcium): < 19% |
| CCOC(=O)N1CC2(CC[C@@H](N3CCN(c4cc(F)cnc4-c4conc4C)CC3)C2)C1 [Compound A140] | > 10 µM | – | 80 to 100% | – | – | – | Emax ([3]; FLIPR calcium): 19 to 49.9% |
| CCOC(=O)N1CC2(CC[C@@H](N3CCN(c4cc(F)cnc4-c4cnc(OC)nc4)CC3)C2)C1 [Compound A146] | > 10 µM | – | 80 to 100% | – | – | – | Emax ([3]; FLIPR calcium): 19 to 49.9% |
| CCOC(=O)N1CC2(CC[C@@H](N3CCN(c4cc(F)cnc4-c4cnc(OC(C)C)nc4)CC3)C2)C1 [Compound A158] | – | – | – | > 10 µM | 19 to 49.9% | 80 to 100% | – |
| CCOC(=O)N1CC2(CC[C@@H](N3CCN(c4cc(F)cnc4-c4cnc(O)c(C)c4)CC3)C2)C1 [Compound A166] | – | – | – | > 10 µM | – | 80 to 100% | Emax ([2]; FLIPR): 19 to 49.9% |
| CCOC(=O)N1CC2(CC[C@@H](N3CCN(c4cc(F)cnc4-c4cnc(F)nc4)CC3)C2)C1 [Compound A184] | – | – | – | > 10 µM | 19 to 49.9% | 80 to 100% | – |
| CCOC(=O)N1CC2(CC[C@@H](N3CCN(c4cc(F)cnc4-c4cnc(C)nc4)CC3)C2)C1 [Compound A185] | – | – | – | > 10 µM | 19 to 49.9% | 80 to 100% | – |
| CCOC(=O)N1CC2(CC[C@@H](N3CCN(c4cc(F)cnc4-c4cnn(C(F)F)c4)CC3)C2)C1 [Compound A194] | – | – | – | > 10 µM | – | 80 to 100% | Emax (M2 mAChR; cAMP assay): < 19% |
| CCOC(=O)N1CC2(CC[C@@H](N3CCN(c4cc(F)cnc4-c4c[nH]c(=O)c(F)c4)CC3)C2)C1 [Compound A206] | – | – | – | > 10 µM | 19 to 49.9% | 80 to 100% | Emax ([2]; FLIPR): 19 to 49.9% |
| CCOC(=O)N1CC2(CC[C@@H](N3CCN(c4cc(F)cnc4-c4ccc(=O)[nH]c4)CC3)C2)C1 [Compound A210] | – | – | – | > 10 µM | 50 to 79.9% | 80 to 100% | Emax ([2]; FLIPR): 19 to 49.9% |
| CCOC(=O)N1CC2(CC[C@@H](N3CCN(c4cc(F)cnc4N4CCOCC4)CC3)C2)C1 [Compound A289] | – | – | – | > 10 µM | 19 to 49.9% | 80 to 100% | – |
